Experiments:
[1] = biological target: T1, Cytochrome P450 2C8 (Homo sapiens, UniProt P10632); test: Inhibition of CYP2C8 (unknown origin)
T1 sequence (P10632 whole entry): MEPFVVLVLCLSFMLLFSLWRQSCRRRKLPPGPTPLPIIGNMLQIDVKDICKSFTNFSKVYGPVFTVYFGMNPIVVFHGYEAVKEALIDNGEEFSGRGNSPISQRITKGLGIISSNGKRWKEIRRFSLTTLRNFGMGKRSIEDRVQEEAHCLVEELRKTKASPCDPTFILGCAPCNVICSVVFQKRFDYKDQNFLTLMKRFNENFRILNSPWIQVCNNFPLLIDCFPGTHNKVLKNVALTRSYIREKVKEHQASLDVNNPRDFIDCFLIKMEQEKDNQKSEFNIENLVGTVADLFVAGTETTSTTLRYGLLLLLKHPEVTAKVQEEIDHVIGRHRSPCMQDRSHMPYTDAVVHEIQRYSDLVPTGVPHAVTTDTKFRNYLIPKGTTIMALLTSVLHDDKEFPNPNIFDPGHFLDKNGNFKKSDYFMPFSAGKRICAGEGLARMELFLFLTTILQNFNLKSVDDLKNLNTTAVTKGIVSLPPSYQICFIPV

[2] = biological target: Cytochrome P450 3A4 (Homo sapiens, UniProt P08684); test: Inhibition of CYP3A4 (unknown origin)
[3] = Microsomal stability in rat liver microsomes assessed as half life; format: ADME, Microsome
[4] = biological target: T2, Relaxin receptor 1 (Mus musculus, UniProt Q6R6I7); test: Agonist activity at mouse RXFP1 stably expressed in HEK293 cells assessed as intracellular cAMP accumulation incubated for 30 mins by HTRF assay; format: functional, cell-based
T2 sequence (Q6R6I7 whole entry): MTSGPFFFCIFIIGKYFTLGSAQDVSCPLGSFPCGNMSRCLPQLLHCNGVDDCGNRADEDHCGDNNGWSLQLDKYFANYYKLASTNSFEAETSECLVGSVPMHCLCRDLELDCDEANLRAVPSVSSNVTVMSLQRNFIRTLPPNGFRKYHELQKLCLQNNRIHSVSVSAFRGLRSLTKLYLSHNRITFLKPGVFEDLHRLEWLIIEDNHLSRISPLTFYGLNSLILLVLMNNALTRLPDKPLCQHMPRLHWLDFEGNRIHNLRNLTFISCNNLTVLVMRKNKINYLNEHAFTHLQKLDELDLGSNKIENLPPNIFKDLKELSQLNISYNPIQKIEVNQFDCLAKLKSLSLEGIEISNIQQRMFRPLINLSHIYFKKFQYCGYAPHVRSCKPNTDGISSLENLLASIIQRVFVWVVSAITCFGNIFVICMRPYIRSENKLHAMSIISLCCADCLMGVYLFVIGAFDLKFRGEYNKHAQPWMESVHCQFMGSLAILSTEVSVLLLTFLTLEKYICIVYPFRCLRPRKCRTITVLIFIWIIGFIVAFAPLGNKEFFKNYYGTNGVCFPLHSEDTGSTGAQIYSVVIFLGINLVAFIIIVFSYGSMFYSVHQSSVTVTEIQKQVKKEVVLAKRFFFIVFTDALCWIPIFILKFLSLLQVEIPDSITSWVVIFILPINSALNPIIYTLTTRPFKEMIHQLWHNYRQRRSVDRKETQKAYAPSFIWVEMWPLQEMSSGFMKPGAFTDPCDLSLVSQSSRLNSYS

[5] = biological target: Cytochrome P450 2C19 (Homo sapiens, UniProt P33261); test: Inhibition of CYP2C19 (unknown origin)
[6] = biological target: T3, Relaxin receptor 1 (Homo sapiens, UniProt Q9HBX9); test: Agonist activity at human RXFP1 stably expressed in HEK293 cells assessed as intracellular cAMP accumulation incubated for 30 mins by HTRF assay
T3 sequence (Q9HBX9 whole entry): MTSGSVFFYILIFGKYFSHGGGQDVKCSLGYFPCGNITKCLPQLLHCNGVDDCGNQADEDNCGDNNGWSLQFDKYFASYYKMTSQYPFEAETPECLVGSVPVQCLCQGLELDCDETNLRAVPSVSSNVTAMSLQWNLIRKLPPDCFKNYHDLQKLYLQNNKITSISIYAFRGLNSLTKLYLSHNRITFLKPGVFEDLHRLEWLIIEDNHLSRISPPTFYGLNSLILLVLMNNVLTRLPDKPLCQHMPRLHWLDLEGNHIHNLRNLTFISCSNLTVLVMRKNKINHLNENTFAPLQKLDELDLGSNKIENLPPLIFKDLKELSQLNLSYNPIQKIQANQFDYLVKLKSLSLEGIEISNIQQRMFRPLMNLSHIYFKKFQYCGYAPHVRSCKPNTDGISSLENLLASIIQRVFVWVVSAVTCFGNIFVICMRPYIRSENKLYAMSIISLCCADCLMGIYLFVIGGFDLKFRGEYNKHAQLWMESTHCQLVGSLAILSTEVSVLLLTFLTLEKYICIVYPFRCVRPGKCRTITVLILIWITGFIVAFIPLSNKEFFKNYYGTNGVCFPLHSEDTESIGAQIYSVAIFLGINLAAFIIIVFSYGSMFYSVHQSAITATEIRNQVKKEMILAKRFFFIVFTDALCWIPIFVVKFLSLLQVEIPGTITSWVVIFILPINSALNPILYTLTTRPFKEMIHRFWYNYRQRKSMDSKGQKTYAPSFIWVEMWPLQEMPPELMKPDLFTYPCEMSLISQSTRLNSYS

Chain of Cytochrome P450 2C19 (P33261 whole entry): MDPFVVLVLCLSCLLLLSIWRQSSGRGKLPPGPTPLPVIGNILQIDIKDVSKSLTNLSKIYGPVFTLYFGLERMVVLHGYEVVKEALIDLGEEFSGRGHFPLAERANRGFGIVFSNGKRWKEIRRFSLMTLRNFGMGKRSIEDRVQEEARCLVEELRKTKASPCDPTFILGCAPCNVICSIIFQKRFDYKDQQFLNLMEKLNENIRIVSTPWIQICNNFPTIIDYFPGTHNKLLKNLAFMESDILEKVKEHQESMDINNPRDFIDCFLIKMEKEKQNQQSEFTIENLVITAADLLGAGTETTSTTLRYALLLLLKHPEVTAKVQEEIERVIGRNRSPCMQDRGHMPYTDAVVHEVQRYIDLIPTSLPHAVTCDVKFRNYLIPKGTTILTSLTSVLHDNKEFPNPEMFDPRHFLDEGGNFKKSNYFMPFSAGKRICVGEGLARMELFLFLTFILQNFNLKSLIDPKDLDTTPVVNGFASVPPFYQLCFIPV
Chain of Cytochrome P450 3A4 (P08684 whole entry): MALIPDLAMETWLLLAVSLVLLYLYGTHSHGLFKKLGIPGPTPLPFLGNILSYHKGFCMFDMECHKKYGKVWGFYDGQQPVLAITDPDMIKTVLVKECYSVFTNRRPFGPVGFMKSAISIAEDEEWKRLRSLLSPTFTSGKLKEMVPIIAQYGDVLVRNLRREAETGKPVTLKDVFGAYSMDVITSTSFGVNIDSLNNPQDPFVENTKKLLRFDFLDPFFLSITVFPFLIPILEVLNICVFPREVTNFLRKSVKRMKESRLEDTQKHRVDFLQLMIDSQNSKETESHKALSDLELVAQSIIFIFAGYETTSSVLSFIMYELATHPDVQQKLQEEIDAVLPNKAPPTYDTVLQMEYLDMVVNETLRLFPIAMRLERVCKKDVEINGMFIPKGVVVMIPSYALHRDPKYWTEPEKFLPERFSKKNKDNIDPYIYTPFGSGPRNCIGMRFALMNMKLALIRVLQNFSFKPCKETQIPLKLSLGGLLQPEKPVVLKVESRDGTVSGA

**Q.** With CNC(=O)OC(C(=O)O)c1ccc(F)c(-c2ccc(OC)c(C(=O)N[C@H]3[C@@H](C(=O)Nc4ccc(F)c(C(F)(F)F)c4)[C@H]4CC[C@@H]3/C4=C\C3CC3)c2)c1 (stereo in doubt; 39) as the molecule, how does the IC50 [1] read?
**A.** Its IC50 is 2600 nM.

**Q.** And the IC50 [2]?
**A.** The IC50 was > 20 µM.

**Q.** What about the half-life [3] of the same molecule?
**A.** The half-life was > 120 min.

**Q.** What about the EC50 [4] of the same molecule?
**A.** The EC50 was 30 nM.

**Q.** What about the IC50 [5] of the same molecule?
**A.** Its IC50 is 17 µM.

**Q.** And the EC50 [6]?
**A.** The EC50 was 2 nM.

— ChEMBL document CHEMBL6182920, “The Discovery of C7-Substituted Norbornyl Bisamides as RXFP1 Small Molecule Agonists” (J Med Chem, 2025)
